Data: patent publication US7947717B2 (priority 2008, dated 2011)
Read-outs that look alike come from different tables or passages of the source.

Assays:
lethal factor (LF) = lethal factor (LF) (Bacillus anthracis, UniProt P15917); assay: biochemical; assay type: biochemical
BoNT A = BoNT A (Clostridium botulinum, UniProt P0DPI0); assay: biochemical
Sequence of BoNT A (P0DPI0 whole entry, looked up): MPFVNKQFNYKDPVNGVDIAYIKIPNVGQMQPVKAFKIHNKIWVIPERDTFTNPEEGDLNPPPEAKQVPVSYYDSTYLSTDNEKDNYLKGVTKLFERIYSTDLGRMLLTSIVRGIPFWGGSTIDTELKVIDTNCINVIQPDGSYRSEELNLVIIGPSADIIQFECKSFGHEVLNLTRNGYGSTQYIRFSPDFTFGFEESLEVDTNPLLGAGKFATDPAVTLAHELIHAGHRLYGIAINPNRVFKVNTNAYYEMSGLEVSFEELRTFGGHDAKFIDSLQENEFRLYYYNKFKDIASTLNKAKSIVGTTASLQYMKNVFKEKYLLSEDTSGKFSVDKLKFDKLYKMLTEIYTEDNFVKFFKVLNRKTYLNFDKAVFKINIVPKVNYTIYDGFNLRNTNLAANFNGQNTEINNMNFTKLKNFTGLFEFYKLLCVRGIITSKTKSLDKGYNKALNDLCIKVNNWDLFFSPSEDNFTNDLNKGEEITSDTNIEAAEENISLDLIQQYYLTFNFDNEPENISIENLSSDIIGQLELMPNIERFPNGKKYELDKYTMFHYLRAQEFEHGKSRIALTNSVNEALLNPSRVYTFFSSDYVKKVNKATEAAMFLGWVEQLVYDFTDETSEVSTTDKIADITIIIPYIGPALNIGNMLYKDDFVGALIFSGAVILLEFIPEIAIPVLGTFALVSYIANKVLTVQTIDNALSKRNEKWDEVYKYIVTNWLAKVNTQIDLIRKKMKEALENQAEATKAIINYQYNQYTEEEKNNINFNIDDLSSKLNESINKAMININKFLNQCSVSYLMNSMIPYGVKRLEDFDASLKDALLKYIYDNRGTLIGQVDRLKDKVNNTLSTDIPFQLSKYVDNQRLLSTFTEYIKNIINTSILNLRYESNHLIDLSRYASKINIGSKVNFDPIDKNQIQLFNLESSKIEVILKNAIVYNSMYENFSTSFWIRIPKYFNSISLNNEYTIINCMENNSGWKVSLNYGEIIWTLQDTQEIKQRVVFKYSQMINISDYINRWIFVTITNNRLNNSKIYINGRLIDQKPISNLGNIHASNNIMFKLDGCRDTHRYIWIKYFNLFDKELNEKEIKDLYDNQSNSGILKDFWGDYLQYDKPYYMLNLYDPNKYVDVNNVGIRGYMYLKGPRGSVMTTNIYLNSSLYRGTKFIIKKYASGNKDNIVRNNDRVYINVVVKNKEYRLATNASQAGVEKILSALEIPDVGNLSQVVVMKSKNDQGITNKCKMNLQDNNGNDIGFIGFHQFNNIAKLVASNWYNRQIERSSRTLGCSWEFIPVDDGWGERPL

Sequence of lethal factor (LF) (P15917 34-809 limits assumed): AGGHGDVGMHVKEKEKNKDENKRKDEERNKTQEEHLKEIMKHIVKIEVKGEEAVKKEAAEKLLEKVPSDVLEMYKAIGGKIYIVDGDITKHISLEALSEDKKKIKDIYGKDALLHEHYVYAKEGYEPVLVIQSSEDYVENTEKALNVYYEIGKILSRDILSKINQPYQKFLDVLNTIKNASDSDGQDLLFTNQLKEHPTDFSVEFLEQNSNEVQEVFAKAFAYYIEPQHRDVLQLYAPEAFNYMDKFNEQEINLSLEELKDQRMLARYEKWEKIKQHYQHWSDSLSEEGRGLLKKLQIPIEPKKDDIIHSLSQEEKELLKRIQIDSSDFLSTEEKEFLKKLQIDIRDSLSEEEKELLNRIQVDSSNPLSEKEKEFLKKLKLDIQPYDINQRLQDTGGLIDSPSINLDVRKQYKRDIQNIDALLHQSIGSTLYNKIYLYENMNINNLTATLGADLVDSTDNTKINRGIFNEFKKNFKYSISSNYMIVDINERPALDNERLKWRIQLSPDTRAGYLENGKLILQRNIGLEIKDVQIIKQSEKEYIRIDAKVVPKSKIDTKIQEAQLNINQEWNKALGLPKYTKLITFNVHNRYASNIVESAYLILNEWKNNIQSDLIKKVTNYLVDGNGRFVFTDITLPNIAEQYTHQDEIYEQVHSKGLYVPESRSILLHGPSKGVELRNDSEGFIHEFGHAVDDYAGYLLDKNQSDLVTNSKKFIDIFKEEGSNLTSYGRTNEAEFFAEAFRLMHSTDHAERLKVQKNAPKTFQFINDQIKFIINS

SMILES	IC50 (lethal factor (LF); pH 7.4, read-out: LF IC50)	IC50 (BoNT A)	further results
O=C(O)CN1C(=O)/C(=C/c2cccc(-n3cccn3)c2)SC1=S [Compound 52, (Z)-2-(5-(3-(1H-pyrazol-1-yl)benzylidene)-4-oxo-2-thioxothiazolidin-3-yl)acetic acid]	27.9 µM	> 200 µM	–
O=C1/C(=C/c2cn(-c3ccccc3)nc2-c2ccc(Cl)cc2)SC(=S)N1C1CCS(=O)(=O)C1 (centres unmarked) [Compound 45, 5-[1-[3-(4-Chloro-phenyl)-1-phenyl-1H-pyrazol-4-yl]-meth-(Z)-ylidene]-3-(1,1-dioxo-tetrahydro-thiophen-3-yl)-2-thioxo-thiazolidin-4-one]	–	> 200 µM	–
CCOc1ccc(-c2nn(-c3ccccc3)cc2/C=C2\SC(=S)N(CC(=O)O)C2=O)cc1F [Compound 46, (Z)-2-(5-((3-(4-ethoxy-3-fluorophenyl)-1-phenyl-1H-pyrazol-4-yl)methylene)-4-oxo-2-thioxothiazolidin-3-yl)acetic acid]	3.45 µM	> 200 µM	–
Cc1nc(-c2ccccc2)c(/C=C2\SC(=S)N(CC(=O)O)C2=O)s1 [Compound 19, (Z)-2-(5-((2-methyl-4-phenylthiazol-5-yl)methylene)-4-oxo-2-thioxothiazolidin-3-yl)acetic acid]	41 µM	> 200 µM	–
O=C(O)CN1C(=O)/C(=C/c2c[nH]nc2-c2ccc(C(F)(F)F)cc2)SC1=S [Compound 27, (Z)-2-(4-oxo-2-thioxo-5-((3-(4-(trifluoromethyl)phenyl)-1H-pyrazol-4-yl)methylene)thiazolidin-3-yl)acetic acid]	–	> 200 µM	IC50 (lethal factor (LF)): 24.6 µM
O=C(O)C(c1ccccc1)N1C(=O)/C(=C/c2ccc(-c3ccc(Cl)cc3Cl)o2)SC1=S (centres unmarked) [Compound 13]	1.2 µM	> 200 µM	Ki (lethal factor (LF)): 1 µM
O=C(O)CN1C(=O)/C(=C/c2ccc(-c3ccccc3)cc2)SC1=S [Compound 49, (Z)-2-(5-(4-phenylbenzylidene)-4-oxo-2-thioxothiazolidin-3-yl)acetic acid]	6.2 µM	54.6 µM	–
O=C(O)CN1C(=O)/C(=C/c2cccc3c2oc2ccccc23)SC1=S [Compound 55, (Z)-2-(5-(dibenzofuran-6-ylmethylene)-4-oxo-2-thioxothiazolidin-3-yl)acetic acid]	2.96 µM	160 µM	–
O=C(O)CN1C(=O)/C(=C/c2c[nH]c3ccccc23)SC1=S [Compound 60, (Z)-2-(5-((1H-indol-3-yl)methylene)-4-oxo-2-thioxothiazolidin-3-yl)acetic acid]	38.7 µM	> 200 µM	–
O=C1/C(=C/c2ccc(-c3ccc(Cl)cc3)o2)SC(=S)N1CCS(=O)(=O)O [Compound 12, (Z)-2-(5-((5-(4-chlorophenyl)furan-2-yl)methylene)-4-oxo-2-thioxothiazolidin-3-yl)ethanesulfonic acid]	–	> 200 µM	–
O=C1/C(=C/c2ccc(-c3ccc(Cl)c(Cl)c3)o2)SC(=S)N1CCS(=O)(=O)O [Compound 11, (Z)-2-(5-((5-(3,4-dichlorophenyl)furan-2-yl)methylene)-4-oxo-2-thioxothiazolidin-3-yl)ethanesulfonic acid]	1.78 µM	11.1 µM	–
O=C(O)CN1C(=O)/C(=C/c2cn(-c3ccccc3)nc2-c2cccs2)SC1=S [Compound 29, (Z)-2-(4-oxo-5-((1-phenyl-3-(thiophen-2-yl)-1H-pyrazol-4-yl)methylene)-2-thioxothiazolidin-3-yl)acetic acid]	3.07 µM	160 µM	–
O=C(O)CN1C(=O)/C(=C/c2cn(-c3ccccc3)nc2-c2ccc(S(=O)(=O)N3CCOCC3)cc2)SC1=S [Compound 31]	4.26 µM	> 200 µM	–
O=C(O)CCC(C(=O)O)N1C(=O)/C(=C/c2ccc(-c3ccc([N+](=O)[O-])cc3)o2)SC1=S (centres unmarked) [Compound 6]	4.91 µM	148 µM	–
O=C1/C(=C/c2cn(-c3ccccc3)nc2-c2ccccc2)SC(=S)N1C1CCS(=O)(=O)C1 (centres unmarked) [Compound 44, 3-(1,1-Dioxo-tetrahydro-thiophen-3-yl)-5-[1-(1,3-diphenyl-1H-pyrazol-4-yl)-meth-(Z)-ylidene]-2-thioxo-thiazolidin-4-one]	–	> 200 µM	–
O=C1/C(=C/c2ccc(-c3cccc([N+](=O)[O-])c3)o2)SC(=S)N1CCS(=O)(=O)O [Compound 9, (Z)-2-(5-((5-(3-nitrophenyl)furan-2-yl)methylene)-4-oxo-2-thioxothiazolidin-3-yl)ethanesulfonic acid]	1.09 µM	–	Ki (lethal factor (LF)): 0.1 µM
O=C(O)CN1C(=O)/C(=C/c2cccc(Br)n2)SC1=S [Compound 56, (Z)-2-(5-((6-bromopyridin-2-yl)methylene)-4-oxo-2-thioxothiazolidin-3-yl)acetic acid]	58 µM	> 200 µM	–
O=C(O)CN1C(=O)/C(=C/c2ccc(-c3ccc([N+](=O)[O-])cc3Cl)o2)SC1=S [Compound 4]	2.1 µM	11.8 µM	–
O=C(O)CC(C(=O)O)N1C(=O)/C(=C/c2ccc(-c3ccc(Br)cc3)o2)SC1=S (centres unmarked) [Compound 5]	3.98 µM	51.6 µM	–

SMILES	IC50 (lethal factor (LF); pH 7.4, read-out: LF IC50)	IC50 (BoNT A)	further results
CN1CCCN(c2ccc(/C=C3\SC(=S)N(CC(=O)O)C3=O)cc2)CC1 [Compound 51]	–	> 50 µM	–
O=C(O)CN1C(=O)/C(=C/c2cc3nccnc3s2)SC1=S [Compound 59]	24.9 µM	> 200 µM	–
COc1ccc(-c2nn(-c3ccccc3)cc2/C=C2\SC(=S)N(CC(=O)O)C2=O)cc1C [Compound 36, (Z)-2-(5-((3-(4-methoxy-3-methylphenyl)-1-phenyl-1H-pyrazol-4-yl)methylene)-4-oxo-2-thioxothiazolidin-3-yl)acetic acid]	3.58 µM	127 µM	–
O=C1/C(=C/c2cn(-c3ccccc3)nc2-c2ccc(S(=O)(=O)N3CCCCC3)cc2)SC(=S)N1CCS(=O)(=O)O [Compound 43, (Z)-2-(4-oxo-5-((1-phenyl-3-(4-(piperidin-1-ylsulfonyl)phenyl)-1H-pyrazol-4-yl)methylene)-2-thioxothiazolidin-3-yl)ethanesulfonic acid]	2.07 µM	20.1 µM	–
O=C1/C(=C/c2ccc(-c3cc(Cl)ccc3Cl)o2)SC(=S)N1CC1CCCO1 (centres unmarked) [Compound 16, (Z)-5-((5-(2,5-dichlorophenyl)furan-2-yl)methylene)-3-((tetrahydrofuran-2-yl)methyl)-2-thioxothiazolidin-4-one]	–	> 50 µM	–
O=C(O)CN1C(=O)/C(=C/c2cccc(N3CCCC3)c2)SC1=S [Compound 50, (Z)-2-(5-(3-(pyrrolidin-1-yl)benzylidene)-4-oxo-2-thioxothiazolidin-3-yl)acetic acid]	28.1 µM	> 200 µM	–
O=C(O)CN1C(=O)/C(=C/c2cc(-c3ccc(Cl)cc3)[nH]n2)SC1=S [Compound 28]	–	> 200 µM	IC50 (lethal factor (LF)): > 100 µM
O=C(O)CN1C(=O)/C(=C/c2cn(-c3ccccc3)nc2-c2ccccc2)SC1=S [Compound 30, (Z)-2-(5-((1,3-diphenyl-1H-pyrazol-4-yl)methylene)-4-oxo-2-thioxothiazolidin-3-yl)acetic acid]	6.25 µM	111 µM	–
O=C(O)CN1C(=O)/C(=C/c2ccc3c(c2)OCO3)SC1=S [Compound 53, (Z)-2-(5-(benzo[d][1,3]dioxol-5-ylmethylene)-4-oxo-2-thioxothiazolidin-3-yl)acetic acid]	83.3 µM	> 200 µM	–
O=C(O)CN1C(=O)/C(=C/c2csc3ccccc23)SC1=S [Compound 57, (Z)-2-(5-(benzo[b]thiophen-3-ylmethylene)-4-oxo-2-thioxothiazolidin-3-yl)acetic acid]	13 µM	> 200 µM	–
O=C1/C(=C/c2ccc(-c3cccc(Cl)c3)o2)SC(=S)N1CCS(=O)(=O)O [Compound 10, (Z)-2-(5-((5-(3-chlorophenyl)furan-2-yl)methylene)-4-oxo-2-thioxothiazolidin-3-yl)ethanesulfonic acid]	1.7 µM	19.9 µM	–
CC(C)(C)OC(=O)N1CCC(c2nc(/C=C3\SC(=S)N(CC(=O)O)C3=O)cs2)CC1 [Compound 18, (Z)-2-(5-((2-(1-(tert-butoxycarbonyl)piperidin-4-yl)thiazol-4-yl)methylene)-4-oxo-2-thioxothiazolidin-3-yl)acetic acid]	20 µM	176 µM	–
CCOc1ccc(-c2nn(-c3ccccc3)cc2/C=C2\SC(=S)N(CC(=O)O)C2=O)c(C)c1 [Compound 37, (Z)-2-(5-((3-(4-ethoxy-2-methylphenyl)-1-phenyl-1H-pyrazol-4-yl)methylene)-4-oxo-2-thioxothiazolidin-3-yl)acetic acid]	4.87 µM	130 µM	–
CN(CCOc1ccc(CC2SC(=O)NC2=O)cc1)c1ccccn1 (centres unmarked) [Compound 2, 5-(4-(2-(methyl(pyridin-2-yl)amino)ethoxy)benzyl)thiazolidine-2,4-dione, reference compound]	–	–	inhibition of LF, kinetic assay (in words) (lethal factor (LF)): did not appreciably inhibit; inhibition of BoNT A, kinetic assay (in words) (BoNT A): did not appreciably inhibit
Cc1nc(/C=C2\SC(=S)N(CC(=O)O)C2=O)c(C)o1 [Compound 17, (Z)-2-(5-((2,5-dimethyloxazol-4-yl)methylene)-4-oxo-2-thioxothiazolidin-3-yl)acetic acid]	100 µM	> 200 µM	–
O=C(O)CN1C(=O)/C(=C/c2c[nH]c3ccc(Br)cc23)SC1=S [Compound 61, (Z)-2-(5-((5-bromo-1H-indol-3-yl)methylene)-4-oxo-2-thioxothiazolidin-3-yl)acetic acid]	7.04 µM	> 200 µM	–
O=C1/C(=C/c2cn(-c3ccccc3)nc2-c2ccc(S(=O)(=O)N3CCOCC3)cc2)SC(=S)N1CCS(=O)(=O)O [Compound 42, (Z)-2-(5-((3-(4-(morpholinosulfonyl)phenyl)-1-phenyl-1H-pyrazol-4-yl)methylene)-4-oxo-2-thioxothiazolidin-3-yl)ethanesulfonic acid]	1.86 µM	85 µM	–
O=C(O)C(c1ccccc1)N1C(=O)/C(=C/c2ccc(-c3cccc(Cl)c3)o2)SC1=S (centres unmarked) [Compound 8]	4.34 µM	127 µM	–
O=C1/C(=C/c2ccc(-c3cccc(Cl)c3Cl)o2)SC(=S)N1C1CCS(=O)(=O)C1 (centres unmarked) [Compound 14, (5Z)-5-{[5-(2,3-dichlorophenyl)-2-furyl]methylene}-3-(1,1-dioxidotetrahydrothien-3-yl)-2-thioxo-1,3-thiazolidin-4-one]	–	> 200 µM	–
